Data reported in patent US20060069132A1, “Azolecarboxamide herbicides” (priority 2004, published 2006).

What was measured:
wheat = assay: Test B postemergence herbicide test; assay type: in vivo, Triticum aestivum; design: key to Wheat plant response rating: 0 = no effect, 100 = complete control; conditions: scale 0 (no effect) to 100 (complete control); for Plant response rating, Wheat: Postemergence, visual rating after 13 to 15 days; for Wheat plant response rating: postemergence, visual rating
Method in brief: (§1)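 Visual ratings, 0 (no effect) to 100 (complete control), made versus controls after 13–15 d greenhouse. Paddy plants treated at 2-leaf stage; postemergence plants at 1- to 4-leaf stage, 2–18 cm tall.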

pigweed = assay: Test B pre-/postemergence herbicide test; assay type: in vivo, Amaranthus retroflexus; conditions: for Pigweed plant response rating: postemergence
Method in brief: (§2)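 Pre: seeds sown, then sprayed. Post: 1–4-leaf plants (2–18 cm) sprayed at the same time. Paddy: flooded, treated at 2-leaf stage. Formulation: non-phytotoxic solvent with surfactant. Greenhouse 13–15 days; visual 0–100 score relative to controls.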

corn = assay: Test B pre-/postemergence herbicide test; assay type: in vivo, Zea mays; conditions: for Corn plant response rating: postemergence
Method in brief: as §2

large crabgrass = assay: Test B pre-/postemergence herbicide test; assay type: in vivo, Digitaria sanguinalis; conditions: for Crabgrass, Large plant response rating: postemergence
Method in brief: as §2

ducksalad = assay: Test B flooded paddy test; assay type: in vivo, Heteranthera limosa; conditions: 1000 g ai/ha, visual rating, scale 0 to 100 (0 no effect, 100 complete control), 13 to 15 days
Method in brief: (§3)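 After treating 2-leaf paddy plants or 2–18 cm postemergence plants (1 to 4 leaves) with formulated chemical, researchers kept them in a greenhouse for 13–15 days. Effects were judged visually versus controls: 0 indicates none, 100 total control.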

[1] = tested on: small flower umbrella sedge; assay: Test B flooded paddy test; assay type: in vivo, Cyperus difformis; conditions: 1000 g ai/ha, visual rating, scale 0 to 100 (0 no effect, 100 complete control), 13 to 15 days
Method in brief: as §3

wild oat = assay: Test B postemergence herbicide test; assay type: in vivo, Avena fatua; conditions: scale 0 (no effect) to 100 (complete control); for Plant response rating, Oat, Wild: Postemergence, visual rating after 13 to 15 days; for Oat, Wild plant response rating: postemergence, visual rating
Method in brief: as §1

blackgrass = assay: Test B postemergence herbicide test; assay type: in vivo, Alopecurus myosuroides; conditions: scale 0 (no effect) to 100 (complete control); for Plant response rating, Blackgrass: Postemergence, visual rating after 13 to 15 days; for Blackgrass plant response rating: postemergence, visual rating
Method in brief: as §3

cocklebur = assay: Test B pre-/postemergence herbicide test; assay type: in vivo, Xanthium strumarium; conditions: for Cocklebur plant response rating: postemergence
Method in brief: (§4)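 Flooded paddy rice and barnyardgrass were treated at the 2-leaf stage; upland plantings received compound either on sown seed or on 1- to 4-leaf seedlings. All were kept 13–15 days in a greenhouse and scored visually, 0–100, relative to untreated plants.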

rice = assay: Test B flooded paddy test; assay type: in vivo, Oryza sativa; conditions: 1000 g ai/ha, visual rating, scale 0 to 100 (0 no effect, 100 complete control), 13 to 15 days
Method in brief: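 Plants grow to 1- to 4-leaf stage (2–18 cm) for postemergence spraying, or to 2-leaf stage for the paddy test. Formulated compound is applied. Greenhouse holding lasts 13–15 days. Response is scored visually relative to controls, 0 no effect to 100 complete control; a dash means no result.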

giant foxtail = assay: Test B pre-/postemergence herbicide test; assay type: in vivo, Setaria faberi; conditions: for Foxtail, Giant plant response rating: postemergence
Method in brief: as §2

barnyardgrass = assay: Test B pre-/postemergence herbicide test; assay type: in vivo, Echinochloa crus-galli; conditions: for Barnyardgrass plant response rating: postemergence
Method in brief: as §4

lambsquarters = assay: Test B pre-/postemergence herbicide test; assay type: in vivo, Chenopodium album; conditions: for Lambsquarters plant response rating: postemergence
Method in brief: as §2

velvetleaf = assay: Test B pre-/postemergence herbicide test; assay type: in vivo, Abutilon theophrasti; conditions: for Velvetleaf plant response rating: postemergence
Method in brief: as §2

Surinam grass = assay: Test B pre-/postemergence herbicide test; assay type: in vivo, Urochloa decumbens; conditions: for Surinam Grass plant response rating: postemergence
Method in brief: as §2

[2] = 500 g ai/ha, visual rating 0-100, 0 no effect, 100 complete control, preemergence
[3] = Postemergence, 500 g ai/ha, visual rating after 13 to 15 days, scale 0 (no effect) to 100 (complete control)
[4] = 125 g ai/ha, visual rating, scale 0 (no effect) to 100 (complete control)
[5] = preemergence, 125 g ai/ha, 0 to 100 scale, 0 is no effect, 100 is complete control
[6] = 125 g ai/ha, 0 = no effect, 100 = complete control, preemergence
[7] = 500 g ai/ha, visual rating, 0 = no effect, 100 = complete control, preemergence
[8] = 500 g ai/ha, visual rating, scale 0 (no effect) to 100 (complete control)

CC(=NO)c1cccc(NC(=O)c2cc(C(C)(C)C)nn2C)c1 [Compound 102]
Plant response rating, Wheat (wheat; 500 g ai/ha): 20 | Wheat plant response rating (wheat; 125 g ai/ha): 0 | Plant response rating, Pigweed (pigweed; [2]): 100 | Plant response rating, Pigweed (pigweed; [3]): 100 | Pigweed plant response rating (pigweed; [4]): 80 | Plant response rating, Pigweed (pigweed; [5]): 90 | Plant response rating, Corn (corn; [2]): 50 | Plant response rating, Corn (corn; [3]): 40 | Corn plant response rating (corn; [4]): 20 | Plant response rating, Corn (corn; [5]): 0 | Plant response rating, Crabgrass, Large (large crabgrass; [2]): 100 | Plant response rating, Crabgrass, Large (large crabgrass; [3]): 70 | Crabgrass, Large plant response rating (large crabgrass; [4]): 10 | Plant response rating, Crabgrass, Large (large crabgrass; [5]): 100 | Ducksalad plant response rating (ducksalad): 90 | Sedge, Umbrella plant response rating [1]: 100 | Plant response rating, Oat, Wild (wild oat; 500 g ai/ha): 40 | Oat, Wild plant response rating (wild oat; 125 g ai/ha): 20 | Plant response rating, Blackgrass (blackgrass; 500 g ai/ha): 20 | Blackgrass plant response rating (blackgrass; 125 g ai/ha): 0 | Plant response rating, Cocklebur (cocklebur; [2]): 0 | Plant response rating, Cocklebur (cocklebur; [3]): 50 | Cocklebur plant response rating (cocklebur; [4]): 30 | Plant response rating, Cocklebur (cocklebur; [5]): 0 | Rice plant response rating (rice): 50 | Plant response rating, Foxtail, Giant (giant foxtail; [2]): 80 | Plant response rating, Foxtail, Giant (giant foxtail; [3]): 30 | Foxtail, Giant plant response rating (giant foxtail; [4]): 10 | Plant response rating, Foxtail, Giant (giant foxtail; [5]): 30 | Plant response rating, Barnyardgrass (barnyardgrass; [2]): 90 | Plant response rating, Barnyardgrass (barnyardgrass; [3]): 40 | Barnyardgrass plant response rating (barnyardgrass; [4]): 0 | Plant response rating, Barnyardgrass (barnyardgrass; [5]): 80 | Plant response rating, Lambsquarters (lambsquarters; [2]): 100 | Plant response rating, Lambsquarters (lambsquarters; [3]): 20 | Lambsquarters plant response rating (lambsquarters; [4]): 10 | Plant response rating, Lambsquarters (lambsquarters; [5]): 100 | Plant response rating, Velvetleaf (velvetleaf; [2]): 70 | Plant response rating, Velvetleaf (velvetleaf; [3]): 20 | Velvetleaf plant response rating (velvetleaf; [4]): 0 | Plant response rating, Velvetleaf (velvetleaf; [5]): 0 | Plant response rating, Surinam Grass (Surinam grass; [2]): 40 | Plant response rating, Surinam Grass (Surinam grass; [3]): 100 | Surinam Grass plant response rating (Surinam grass; [4]): 70 | Plant response rating, Surinam Grass (Surinam grass; [5]): 20

CC(=NO)c1cccc(NC(=O)c2cc(C(C)(C)C)nn2CC(F)(F)F)c1 [Compound 112]
Plant response rating, Wheat (wheat; 500 g ai/ha): 30 | Wheat plant response rating (wheat; 125 g ai/ha): 20 | Plant response rating, Pigweed (pigweed; [2]): 90 | Plant response rating, Pigweed (pigweed; [3]): 100 | Pigweed plant response rating (pigweed; [4]): 90 | Plant response rating, Pigweed (pigweed; [5]): 0 | Plant response rating, Corn (corn; [2]): 0 | Plant response rating, Corn (corn; [3]): 40 | Corn plant response rating (corn; [4]): 40 | Plant response rating, Corn (corn; [5]): 0 | Plant response rating, Crabgrass, Large (large crabgrass; [2]): 90 | Plant response rating, Crabgrass, Large (large crabgrass; [3]): 30 | Crabgrass, Large plant response rating (large crabgrass; [4]): 20 | Plant response rating, Crabgrass, Large (large crabgrass; [5]): 20 | Ducksalad plant response rating (ducksalad): 80 | Sedge, Umbrella plant response rating [1]: 80 | Plant response rating, Oat, Wild (wild oat; 500 g ai/ha): 40 | Oat, Wild plant response rating (wild oat; 125 g ai/ha): 40 | Plant response rating, Blackgrass (blackgrass; 500 g ai/ha): 20 | Blackgrass plant response rating (blackgrass; 125 g ai/ha): 20 | Plant response rating, Cocklebur (cocklebur; [2]): 0 | Plant response rating, Cocklebur (cocklebur; [3]): 100 | Cocklebur plant response rating (cocklebur; [4]): 60 | Plant response rating, Cocklebur (cocklebur; [5]): 0 | Rice plant response rating (rice): 70 | Plant response rating, Foxtail, Giant (giant foxtail; [2]): 20 | Plant response rating, Foxtail, Giant (giant foxtail; [3]): 30 | Foxtail, Giant plant response rating (giant foxtail; [4]): 20 | Plant response rating, Foxtail, Giant (giant foxtail; [5]): 10 | Plant response rating, Barnyardgrass (barnyardgrass; [2]): 70 | Plant response rating, Barnyardgrass (barnyardgrass; [3]): 70 | Barnyardgrass plant response rating (barnyardgrass; [4]): 50 | Plant response rating, Barnyardgrass (barnyardgrass; [5]): 50 | Plant response rating, Lambsquarters (lambsquarters; [2]): 90 | Plant response rating, Lambsquarters (lambsquarters; [3]): 100 | Lambsquarters plant response rating (lambsquarters; [4]): 90 | Plant response rating, Lambsquarters (lambsquarters; [5]): 0 | Plant response rating, Velvetleaf (velvetleaf; [2]): 50 | Plant response rating, Velvetleaf (velvetleaf; [3]): 70 | Velvetleaf plant response rating (velvetleaf; [4]): 30 | Plant response rating, Velvetleaf (velvetleaf; [5]): 0 | Plant response rating, Surinam Grass (Surinam grass; [2]): 20 | Plant response rating, Surinam Grass (Surinam grass; [3]): 20 | Surinam Grass plant response rating (Surinam grass; [4]): 20 | Plant response rating, Surinam Grass (Surinam grass; [5]): 20

CCc1nc(C(C)(C)C)sc1C(=O)Nc1cccc(C(=O)NCC2CC2)n1 [Compound 215]
Wheat plant response rating (wheat; 125 g ai/ha): 0 | Wheat plant response rating (wheat; 500 g ai/ha): 20 | Pigweed plant response rating (0 to 100 scale) (pigweed; [6]): 80 | Plant response rating, Pigweed (pigweed; [7]): 100 | Pigweed plant response rating (pigweed; [4]): 20 | Pigweed plant response rating (pigweed; [8]): 70 | Corn plant response rating (0 to 100 scale) (corn; [6]): 0 | Plant response rating, Corn (corn; [7]): 0 | Corn plant response rating (corn; [4]): 0 | Corn plant response rating (corn; [8]): 10 | Crabgrass, Large plant response rating (0 to 100 scale) (large crabgrass; [6]): 0 | Plant response rating, Crabgrass, Large (large crabgrass; [7]): 80 | Crabgrass, Large plant response rating (large crabgrass; [4]): 0 | Crabgrass, Large plant response rating (large crabgrass; [8]): 0 | Ducksalad plant response rating (ducksalad): 90 | Sedge, Umbrella plant response rating [1]: 90 | Oat, Wild plant response rating (wild oat; 125 g ai/ha): 10 | Oat, Wild plant response rating (wild oat; 500 g ai/ha): 20 | Blackgrass plant response rating (blackgrass; 125 g ai/ha): 0 | Blackgrass plant response rating (blackgrass; 500 g ai/ha): 0 | Cocklebur plant response rating (0 to 100 scale) (cocklebur; [6]): 0 | Plant response rating, Cocklebur (cocklebur; [7]): 0 | Cocklebur plant response rating (cocklebur; [4]): 20 | Cocklebur plant response rating (cocklebur; [8]): 80 | Rice plant response rating (rice): 30 | Foxtail, Giant plant response rating (0 to 100 scale) (giant foxtail; [6]): 0 | Plant response rating, Foxtail, Giant (giant foxtail; [7]): 80 | Foxtail, Giant plant response rating (giant foxtail; [4]): 0 | Foxtail, Giant plant response rating (giant foxtail; [8]): 20 | Barnyardgrass plant response rating (0 to 100 scale) (barnyardgrass; [6]): 10 | Plant response rating, Barnyardgrass (barnyardgrass; [7]): 60 | Barnyardgrass plant response rating (barnyardgrass; [4]): 0 | Barnyardgrass plant response rating (barnyardgrass; [8]): 20 | Lambsquarters plant response rating (0 to 100 scale) (lambsquarters; [6]): 90 | Plant response rating, Lambsquarters (lambsquarters; [7]): 100 | Lambsquarters plant response rating (lambsquarters; [4]): 0 | Lambsquarters plant response rating (lambsquarters; [8]): 0 | Velvetleaf plant response rating (0 to 100 scale) (velvetleaf; [6]): 0 | Plant response rating, Velvetleaf (velvetleaf; [7]): 60 | Velvetleaf plant response rating (velvetleaf; [4]): 40 | Velvetleaf plant response rating (velvetleaf; [8]): 60 | Surinam Grass plant response rating (0 to 100 scale) (Surinam grass; [6]): 0 | Plant response rating, Surinam Grass (Surinam grass; [7]): 70 | Surinam Grass plant response rating (Surinam grass; [4]): 0 | Surinam Grass plant response rating (Surinam grass; [8]): 10
